Like-named read-outs stand apart in the source and are kept apart here.
Legend:
[1] = physchem; settings: pH 2.7
Procedure: Measurement of log P values was performed according EEC directive 79/831 Annex V.A8 by HPLC (High Performance Liquid Chromatography) on reversed phase columns with the following methods: ^[a]

[2] = assay type: physicochemical; settings: for chromatographic logP: pH 2.7; for log P: method [a]: HPLC/LC-MS on reversed phase at pH 2.7, 0.1% formic acid in water / acetonitrile, linear gradient 10% to 95% acetonitrile
[3] = system: Sphaerotheca fuliginea; test: In vivo preventive test on Sphaerotheca fuliginea (powdery mildew on cucurbits); settings: 500 ppm; gherkin plants sprayed 24 hours before contamination; grading 12 days after contamination vs control plants
Summary of the method: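 Preventive spray of gherkin plants at Z11 cotyledon stage, grown at 24° C; inoculation 24 hours later with Sphaerotheca fuliginea spores (100 000 spores per ml). Efficacy graded 12 days post-inoculation as % versus solvent-treated control plants.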

[4] = system: Phytophthora infestans; assay type: in vivo; settings: 500 ppm; tomato plants sprayed 24 hours before contamination; grading 5 days after contamination vs control plants
[5] = system: Peronospora parasitica; test: In vivo preventive test on Peronospora parasitica (crucifer downy mildew); settings: 500 ppm; cabbage plants sprayed 24 hours before contamination; grading 5 days after contamination vs control plants
Procedure: Cabbage plants (Eminence variety) in starter cups, sown on a 50/50 peat soil-pozzolana substrate and grown at 18-20° C., are treated at the cotyledon stage by spraying with the aqueous suspension described above. Plants, used as controls, are treated with an aqueous solution not containing the active material. After 24 hours, the plants are contaminated by spraying them with an aqueous suspension of Peronospora parasitica spores (50.000 spores per ml). The spores are collected from infected plant. The contaminated cabbage plants are incubated for 5 days at 20° C., under a humid atmosphere. Grading is carried out 5 days after the contamination, in comparison with the control plants.

[6] = system: Botrytis cinerea; test: In vivo preventive test on Botrytis cinerea (grey mould); settings: 500 ppm; gherkin plants sprayed 24 hours before contamination; grading 4-5 days after contamination vs control plants
Summary of the method: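 Gherkin plants ("Vert petit de Paris") sprayed with compound at Z11 cotyledon stage, then inoculated 24 h later with B. cinerea spores (50 000/ml) in PDB/fructose/NH4NO3/KH2PO4 nutrient solution. Incubated at 17 °C, 80% RH; % efficacy versus solvent-treated controls graded 4–5 days after contamination.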

[7] = system: Uromyces appendiculatus; test: In vivo preventive test on Uromyces appendiculatus (bean rust); settings: 500 ppm; bean plants sprayed 24 hours before contamination; grading 10 days after contamination vs control plants
Procedure: Bean plants (“Saxa” variety), sown in starter cups on a 50/50 peat soil-pozzolana substrate and grown at 24° C., are treated at the 2-leaf stage (9 cm height) by spraying with the active ingredient prepared as described above. Plants, used as controls, are treated with the mixture of acetone/tween/DMSO/water not containing the active material. After 24 hours, the plants are contaminated by spraying the leaves with an aqueous suspension of Uromyces appendiculatus spores (150 000 spores per ml).

[8] = system: Puccinia recondita; test: In vivo preventive test on Puccinia recondita (brown rust on wheat); settings: 500 ppm; wheat plants sprayed 24 hours before contamination; grading 10 days after contamination vs control plants
Summary of the method: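 Wheat (Scipion) grown at 22° C./20° C. (12 h each), sprayed with active ingredient at 1-leaf stage (10 cm); controls sprayed with acetone/tween/DMSO/water lacking active. Leaves inoculated 24 hours later with Puccinia recondita spore suspension (100 000 spores per ml).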

[9] = system: Septoria tritici; test: In vivo preventive test on Septoria tritici (leaf spot on wheat); settings: 500 ppm; wheat plants sprayed 24 hours before contamination; grading 21 to 28 days after contamination vs control plants
Summary of the method: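 Scipion wheat at 1-leaf stage sprayed with compound, controls receiving acetone/tween/DMSO/water vehicle; 24 h later leaves inoculated with Septoria tritici spores (500 000 spores per ml). Efficacy (%) graded versus control plants 21 to 28 days after contamination.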

[10] = system: Pyrenophora teres; test: In vivo preventive test on Pyrenophora teres (net blotch on barley); settings: 500 ppm; barley plants sprayed 24 hours before contamination; grading 12 days after contamination vs control plants
Procedure: Barley plants (“Plaisant” variety), sown in starter cups on a 50/50 peat soil-pozzolana substrate and grown at 22° C. (12 h)/20° C. (12 h), are treated at the 1-leaf stage (10 cm height) by spraying with the active ingredient prepared as described above. Plants, used as controls, are treated with the mixture of acetone/tween/DMSO/water not containing the active material. After 24 hours, the plants are contaminated by spraying the leaves with an aqueous suspension of Pyrenophora teres spores (12 000 spores per ml). The spores are collected from a 12-day-old culture. […] Grading (% of efficacy) is carried out 12 days after the contamination, in comparison with the control plants.

[11] = system: Alternaria brassicae; test: In vivo preventive test on Alternaria brassicae (leaf spot on radish); settings: 500 ppm; radish plants sprayed 24 hours before contamination; grading 5 days after contamination vs control plants
Summary of the method: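 Radish plants ('Pernod Clair', grown at 17 °C) were spray-treated at the 2-leaf stage; controls received solvent mix only. After 24 h, leaves were sprayed with 50 000 spores/ml from 15-day-old cultures, and % efficacy was graded 5 days post-inoculation against controls.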

## CC1(C(=O)O)CC(c2ccc3ncc(Cl)cc3c2)=NO1 (stereo not drawn) [Compound No. II-01, 3-(3-chloroquinolin-6-yl)-5-methyl-4,5-dihydro-1,2-oxazole-5-carboxylic acid]
[1]
  chromatographic logP: 1.87
[2]
  chromatographic logP: 1.87

## C#Cc1cnc2ccc(C3=NOC(C)(C(=O)NCc4cn(CC)nc4C)C3)cc2c1 (stereo not drawn) [compound 43]
[3]
  % of efficacy (protection): 100%
[2]
  log P: 2.14^[a]
[4]
  % of efficacy (protection): 100%
[5]
  Grading, protection: 94%
[6]
  % of efficacy (protection): 100%
[7]
  % of efficacy (protection): 97%
[8]
  % of efficacy (protection): 75%

## COC(=O)C1(C)CC(c2ccc3ncc(Cl)cc3c2)=NO1 (stereo not drawn) [II-23, methyl 3-(3-chloroquinolin-6-yl)-5-methyl-4,5-dihydro-1,2-oxazole-5-carboxylate]
[1]
  chromatographic logP: 2.58
[2]
  chromatographic logP: 2.58

## CC1(C(=O)O)CC(c2ccc3ncc(I)cc3c2)=NO1 (stereo not drawn) [Compound No. II-09]
[1]
  chromatographic logP: 2.05
[2]
  chromatographic logP: 1.93

## CCn1cc(CNC(=O)C2(OC)CC(c3ccc4ncc(Br)cc4c3)=NO2)c(C)n1 (stereo not drawn) [compound 47]
[2]
  log P: 2.31^[a]
[5]
  Grading, protection: 100%
[6]
  % of efficacy (protection): 95%
[9]
  % of efficacy (protection): 100%
[10]
  % of efficacy (protection): 75%

## COC1(C(=O)NC(C)C)CC(c2ccc3ncc(Br)cc3c2)=NO1 (stereo not drawn) [compound 48]
[3]
  % of efficacy (protection): 100%
[11]
  % of efficacy (protection): 97%
[2]
  log P: 2.64^[a]
[4]
  % of efficacy (protection): 100%
[5]
  Grading, protection: 98%
[6]
  % of efficacy (protection): 100%
[9]
  % of efficacy (protection): 100%
[7]
  % of efficacy (protection): 96%
[8]
  % of efficacy (protection): 89%
[10]
  % of efficacy (protection): 93%

## CC(C)NC(=O)C1(C(F)(F)F)CC(c2ccc3ncc(Br)cc3c2)=NO1 (stereo not drawn) [compound 36]
[2]
  log P: 3.52^[a]
[5]
  Grading, protection: 98%
[9]
  % of efficacy (protection): 100%
[8]
  % of efficacy (protection): 79%
[10]
  % of efficacy (protection): 79%

Reference: US9510598B2, “Nitrogen-containing heterocyclic compounds for plant disease control” (BAYER CROPSCIENCE AG, priority 2012, dated 2016)
